Laboratory results from patent US20240025849A1 (MAX DELBRÜCK-CENTRUM FÜR MOLEKULARE MEDIZIN IN DER …, priority 2020, published 2024).
Values joined by “and” are separate entries in the source; they are usually repeats but may differ in a detail not shown here. Equal entries are not always repeated. “Also recorded” adds a separate entry of the source.

Experiments:
[1] = Intravenous pharmacokinetic study in mice (blood plasma)
Procedure: Intravenous Pharmacokinetic Study in Mice. The intravenous pharmacokinetic study in mice was carried out by the company Touchstone Biosciences (Plymouth Meeting, USA) according to their standard procedures. In brief, 3 male adult mice of the CD-1 strain were fasted overnight. 5 mg/kg compound was given intravenously in one shot.

iNOS = assay: NOS enzyme activity assay (Eurofins), iNOS; type: biochemical; details: C1: 1 μM up to 5 μM as printed; 30 min reaction
Procedure: In mammalians NO is produced by the three isoforms of NOS: iNOS, eNOS, and nNOS. To evaluate the direct influence of cl on the different isoforms of NOS, an enzyme activity assay was conducted by Eurofins. C1 was mixed with the enzyme buffer, which included co-factors and substrates and by adding the enzyme the reaction was initiated. After 30 min the reaction was stopped, and NO concentration was measured. The results are normalised to positive control performed without any additional compounds and are presented as percentage in inhibition. […] To test the compounds effect on iNOS a concentration range from […] 5 μM were applied ([…], 1, 10, 100 nM, 1, and 5 μM), and for testing eNOS and nNOS 1 nM and 1 μM were applied.

iNOS mRNA = assay: Quantitative PCR of iNOS mRNA in microglia; type: cell-based, mouse; details: 2.5 μM C1
Procedure: Quantitative PCR. The same stimulation protocol as for the Flow cytometry-based phagocytosis assay was applied. Cells were seeded overnight, treated with 2.5 μM C1 in DMSO, 125×10^−5 v/v DMSO respectively, or plain medium only for 1 hour, followed by an additional stimulation with 1 μg/ml LPS for 24 hours. Total RNA was isolated using the RNeasy Plus Mini Kit (Qiagen, Hilden, Germany). On-column DNase 1 (Qiagen) digestion was performed and total RNA was eluted in RNase-free water. RNA yield was measured using a Nanodrop 1000 (Thermo Fisher Scientific) spectrophotometer and quality was assessed using an Agilent 2100 Bioanalyzer (Agilent, Santa Clara, USA). Samples were stored at −80° C. until further use. First-strand cDNA synthesis was done with the SuperScript II reverse transcriptase (Thermo Fisher Scientific) using oligo-dT primers12-18 (Invitrogen) according to the manufacturer's instructions. Quantitative real-time PCR (qRT PCR) reactions were performed in a 7500 Fast Real-Time thermocycler (Thermo Fisher Scientific) using the SYBR Select Master Mix (Thermo Fisher Scientific) according to the manufacturer's instructions. cDNA input ranged between 1 and 5 ng/μl of total RNA transcribed into cDNA. The expression results were normalized to the expression of PActin of the same sample.

[2] = system: primary cultured neonatal microglia; assay: IFNγ induced NO release, Griess assay; type: cell-based, mouse; details: for level of NO, % of its initial concentration (stimulated control): 100 ng/ml IFNγ 48 hours
Procedure: (§1) Primary cultured neonatal microglia. For preparation of cultured neonatal microglia, P0-P3 mice were used. 10 brains were extracted, meninges and cerebellum were removed and put on ice with Hank's balanced salt solution (HBSS). The dissected brains were washed 3 times before adding 400 μL trypsin (0.1 mg/L) and DNAse (5 μg/L) in phosphate buffered saline (PBS). After 2 min of incubation with this solution, the reaction was blocked by adding plain medium. After removal of the medium, 1 mg DNAse was added and the cells were mechanically dissociated, with a Pasteur pipette followed by a glass pipette. The cells were centrifuged for 10 min at 129 g at 4° C. The supernatant was discarded. The pellet was resuspended in plain medium and plated (2.5 brains/flask) in Poly-L-Lysine coated flasks. The cells were washed after 2 days with PBS and incubated for another 7 days in plain medium. Afterwards the medium was replaced by plain medium with 33% L929 conditioned medium. After 2 days, cells were harvested by shaking them for 30 min at 150 rpm. The supernatant was centrifuged for 10 min at 129 g at 4° C. The cells were plated into a 96 well plate (100 000 cells/well, 200 μL medium per well). This procedure could be repeated 2 times with a 2 day interval.
(§2) Griess assay. Cells were seeded according to the protocols described above, after compounds and stimuli were added, 100 μl of supernatant was transferred into a new 96 well plate and 100 μl freshly mixed Griess reagent were added. Griess reagent was composed of reagent A (100 mg Naphthylethylene in 50 ml aqua dest.) and reagent B (1 g Sulfanilamide, […] H3PO4 (85%) in 44 mL aqua dest.) mixed 1:1. The solution was carefully mixed and the absorbance was determined in a microplate reader at a wavelength of 550 nm.
(§3) In order to test whether C1 decreases NO release induced by other stimulation agents besides LPS which is mimicking a bacterial infection, the inventors used IFNγ to mimic a Th1 cell response (Yau et al., 2016) and PolyIC to mimic an anti-viral response (Jiang and Pisetsky, 2006). Given that our aim is to determine the compound's effect on already stimulated microglia (LPS, IFNγ, and PolyIC), each individual experiment is normalized to its stimulated control.

[3] = system: primary cultured neonatal microglia; assay: PolyIC induced NO release, Griess assay; type: cell-based, mouse; details: for NO concentration, % of stimulated control: 100 μg/ml PolyIC 24 hours
Procedure: as §1, §2, §3

[4] = system: bone marrow derived macrophages; assay: Cytokine release (IL1β, IL6, TNFα) ELISA in macrophages; type: cell-based, mouse; details: 1 μg/mL LPS 48 hours
Procedure: Primary cultured macrophages. Bone marrow macrophages were isolated from C57BL/6 adult mice (P49-56) as previously described (Marim et al., 2010). In summary, mice were killed by cervical dislocation and the femurs were removed by cutting through the tibia near the pelvic bone and below the knee. Any muscle connected to the bone was carefully removed. Ice cold sterile PBS was slowly flushed through the bone and the contents were collected in a sterile 15 mL polypropylene tube on ice. After centrifugation for 10 min at 200 g at 4° C., red blood cells were lysed by adding 3-10 mL ammonium chloride solution. After a 3-5 min recovery period, the suspension was centrifuged for 10 min at 200 g at 4° C. and the supernatant was removed. Cells were plated in a 10 cm dish with plain medium containing 10 ng/mL M-CSF and cultured for 7 days to allow differentiation. 50 000 cells were plated with 200 μL medium per well in a 96 well plate.
Enzyme-linked immunosorbent assay (ELISA). Cells were seeded according to the protocols described above, after compounds and stimuli were added, the supernatant was collected, centrifuged (500 g, 5 minutes) and stored at −20° C. until analysed. The following kits from Bio-Techne (Minneapolis, USA) were used to detect IL1β, IL6 and TNFα: ELISA Mouse IL-1β/IL-1F2 Duo Set, ELISA Mouse IL-6, ELISA Mouse TNFα. ELISA assays were performed according to the manufacturers protocol.

In the case of `COc1ccc(NC(=O)C(NC(=O)C2CCCN2C(=O)OCc2ccccc2)c2ccc(OC)cc2)cc1` (stereo not shown) [C1], the “survival / health issues within 24 hours” value ([1]; 5 mg/kg intravenous, 3 mice) is reported as “All mice survived; also recorded: no health issues were reported and all mice survived”, the “concentration in blood plasma” value ([1]; 5 min after 5 mg/kg intravenous, CD-1 male mice) is reported as 12 µM and the concentration at 5 min ([1]; male, CD-1, mouse, plasma, intravenous, 5 mg/kg, concentration in blood plasma, 5 min after 5 mg/kg intravenous, CD-1 male mice) is reported as 11.9 µM. For the same molecule, the concentration at 24 h ([1]; male, CD-1, mouse, plasma, intravenous, 5 mg/kg, concentration in blood plasma, 24 hours after 5 mg/kg intravenous, CD-1 male mice) was 0.00126 µM, the “enzymatic activity of iNOS” value (iNOS) was “does not interfere” and the “iNOS mRNA level, basal conditions” value (iNOS mRNA) was “no significant effect; also recorded: did not change”. The “iNOS mRNA level after LPS stimulation” value (iNOS mRNA; 1 μg/ml LPS 24 hours) was “did not change mRNA significantly”, the “level of NO, % of its initial concentration (stimulated control)” value (“level of NO, % … (stimulated control)” for short) ([2]; 25 nM C1) was 84% and the “level of NO, % … (stimulated control)” value ([2]; 250 nM C1) was 41%. For the same molecule, the “level of NO, % … (stimulated control)” value ([2]; 2.5 μM C1) was 22%, the “NO release upon stimulation with IFNγ” value ([2]; pre-treatment with C1) was “dose dependent decrease” and the “NO concentration, % of stimulated control” value (“NO concentration, %” below) ([3]; 25 nM C1) was 66%. The “NO concentration, %” value ([3]; 250 nM C1) was 29%, the “NO concentration, %” value ([3]; 2.5 μM C1) was 25% and the “NO release upon stimulation with PolyIC” value ([3]; pre-treatment with C1) was “dose dependent decrease”. For the same molecule, the “LPS induced release of IL1β” value [4] was “not changed; also recorded: Neither the treatment with C1 nor with DMSO showed any significant changes”, the “LPS induced release of IL6” value [4] was “not changed; also recorded: Neither the treatment with C1 nor with DMSO showed any significant changes” and the “reduction of TNFα release” value ([4]; 2.5 μM (highest concentration) C1) was 9% and 5%. For the same molecule, the “release of TNFα, % of positive control” value ([4]; 2.5 μM C1) was 91%.
